Target: T1, 5-LO (Homo sapiens, UniProt P09917)
T1 construct: incubating a test compound with heparinised human blood, prior to challenge with the calcium ionophore A23187; endogenous in cells; host or cells: blood cells of heparinised human whole blood
T1 sequence (P09917 1-674): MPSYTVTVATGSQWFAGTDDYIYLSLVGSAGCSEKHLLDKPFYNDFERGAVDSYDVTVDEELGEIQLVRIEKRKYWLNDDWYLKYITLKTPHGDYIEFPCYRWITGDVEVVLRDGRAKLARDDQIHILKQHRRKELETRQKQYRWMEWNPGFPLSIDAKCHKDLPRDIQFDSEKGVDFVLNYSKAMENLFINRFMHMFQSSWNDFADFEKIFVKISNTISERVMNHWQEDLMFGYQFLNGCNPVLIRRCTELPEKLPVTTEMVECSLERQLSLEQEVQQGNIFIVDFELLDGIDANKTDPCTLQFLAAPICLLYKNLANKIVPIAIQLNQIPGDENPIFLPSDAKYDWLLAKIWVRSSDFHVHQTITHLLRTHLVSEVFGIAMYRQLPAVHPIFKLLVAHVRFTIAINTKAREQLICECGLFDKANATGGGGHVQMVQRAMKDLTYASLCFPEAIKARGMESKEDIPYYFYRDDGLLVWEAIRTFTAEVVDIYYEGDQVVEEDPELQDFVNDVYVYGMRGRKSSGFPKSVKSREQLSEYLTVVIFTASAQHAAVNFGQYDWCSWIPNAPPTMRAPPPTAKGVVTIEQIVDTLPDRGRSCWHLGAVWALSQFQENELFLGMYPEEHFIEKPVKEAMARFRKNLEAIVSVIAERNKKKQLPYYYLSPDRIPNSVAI
Assay: Test a): in vitro heparinised human blood challenged with calcium ionophore A23187, radioimmunoassay of LTB4
Assay type: cell-based
Conditions: A23187 challenge, read-out: IC₅₀ against LTB₄
Excerpt: As stated previously, the compounds of the formula I are inhibitors of the enzyme 5-LO. […] J. Pharmacol. 1985, 84, 34P) which involve the use of a protein-LTB₄ conjugate produced using the procedure of Young et alia (Prostaglandins, 1983, 26(4), 605-613). The effects of a test compound on the enzyme cyclooxygenase (which is involved in the alternative metabolic pathway for arachidonic acid and gives rise to prostaglandins, thromboxanes and related metabolites) may be measured at the same time using the specific radioimmunoassay for thromboxane B₂(TxB₂) described by Carey and Forder (see above). This test provides an indication of the effects of a test compound against 5-LO and also cyclooxygenase in the presence of blood cells and proteins. It permits the selectivity of the inhibitory effect on 5-LO or cyclooxygenase to be assessed. • b) An ex vivo assay system, which is a variation of test a) above, involving administration to a group of rats of a test compound (usually orally as the suspension produced when a solution of the test compound in dimethylsulphoxide is added to carboxymethylcellulose), blood collection, heparinisation, challenge with A23187 and radioimmunoassay of LTB₄ and TxB₂. […]

| IC50 | SMILES |
| --- | --- |
| 390 nM | COC1CCC(C)C(c2cccc(OCc3ccc4c(ccc(=O)n4C)c3)c2)C1 (centres unmarked) [Example 2, 1-methoxy-4-methyl-3-[3-(1-methyl-2-oxo-1,2-dihydroquinolin-6-ylmethoxy)phenyl]cyclohexane] |
| 40 nM | COC1(OC)CC[C@H](C)[C@H](c2cccc(OCc3ccc4c(ccc(=O)n4C)c3)c2)C1 (racemic) [Example 4, (3RS,4SR)-1,1-dimethoxy-4-methyl-3-[3-(1-methyl-2-oxo-1,2-dihydroquinolin-6-ylmethoxy)phenyl]cyclohexane] |

From patent EP0570112A1, “Cycloalkane derivatives” (ZENECA LIMITED, priority 1992, dated 1993)
